Assay results published in publication PMC6522510 (Nature Communications, 2019).
Counter-ions that a name gives are not always drawn. Like-named read-outs stand apart in the source and are kept apart here. Square brackets hold non-standard residues; d marks the D form. Peptide text beside a SMILES is read from it. * marks the point of attachment. Sta = CC(C)C[C@H](N)[C@@H](O)CC(=O)O; Isovaleryl = CC(C)CC(=O)*

How the values were obtained:
Set-up in all cases: species or system AML cell lines (8); Primary HTS, single concentration about 10 uM, Cell Titer Glo viability; log10 luminescence, per cent inhibition relative to cycloheximide control
Details in all cases: 72 h, relative to cycloheximide control, log10 luminescence, inhibitor
[1] = tested on: M07e
[2] = tested on: CMS
[3] = tested on: MV4-11
[4] = tested on: CMK
[5] = tested on: MOLM-13
[6] = tested on: CHRF288-11
[7] = tested on: U937
[8] = tested on: ML-2

Structure (SMILES)	M07e %inh [1] [%]	CMS %inh [2] [%]	MV4-11 %inh [3] [%]	CMK %inh [4] [%]	MOLM-13 %inh [5] [%]	CHRF288-11 %inh [6] [%]	U937 %inh [7] [%]	ML-2 %inh [8] [%]	M07e %inh ([1]; M07e %inh, 10 µM) [%]	CMS %inh ([2]; CMS %inh, 10 µM) [%]	MV4-11 %inh ([3]; MV4-11 %inh, 10 µM) [%]	CMK %inh ([4]; CMK %inh, 10 µM) [%]	MOLM-13 %inh ([5]; MOLM-13 %inh, 10 µM) [%]	CHRF288-11 %inh ([6]; CHRF288-11 %inh, 10 µM) [%]	U937 %inh ([7]; U937 %inh, 10 µM) [%]	ML-2 %inh ([8]; ML-2 %inh, 10 µM) [%]
CC(C)(C)c1ccc(C(O)CCCN2CCC(C(O)(c3ccccc3)c3ccccc3)CC2)cc1 (centres unmarked) [SJ000287189-5, TERFENADINE]	132.8	-3.743	1.084	-4.344	-1.727	1.988	0.7714	1.525								
NCC1(CC(=O)O)CCCCC1 [SJ000287210-5, GABAPENTIN]	-2.786	-2.432	5.813	0.3533	0.8376	-2.43	-1.755	-3.023								
CC(C)CC(=O)N[C@H](C(=O)N[C@H](C(=O)N[C@@H](CC(C)C)[C@@H](O)CC(=O)N[C@@H](C)C(=O)N[C@@H](CC(C)C)[C@@H](O)CC(=O)O)C(C)C)C(C)C [SJ000287258-3, PEPSTATIN A] (Isovaleryl-VV[Sta]A[Sta]-OH)									1.266	1.08	0.8934	-4.878	-0.1246	20.49	4.393	1.096
CC(C)CC(=O)N[C@H](C(=O)N[C@H](C(=O)N[C@@H](CC(C)C)[C@@H](O)CC(=O)N[C@@H](C)C(=O)N[C@@H](CC(C)C)[C@@H](O)CC(=O)O)C(C)C)C(C)C [SJ000287258-4, PEPSTATIN A] (Isovaleryl-VV[Sta]A[Sta]-OH)									-0.4461	2.288	2.97	-1.598	0.9923	-1.709	-1.362	-2.254
C=CC1=C(C(=O)O)N2C(=O)[C@@H](NC(=O)/C(=N\OCC(=O)O)c3csc(N)n3)[C@H]2SC1 [SJ000287284-2, CEFIXIME]	-4.21	-2.931	-3.36	0.8991	0.1743	-7.075	0.1666	-0.1874								
CN(CCCCCCCCCCN(C)C(=O)Oc1cccc([N+](C)(C)C)c1)C(=O)Oc1cccc([N+](C)(C)C)c1 [SJ000287334-2, DEMECARIUM BROMIDE]									6.779	0.249	26.64	0.3844	14.75	5.292	24.11	3.342
CN(CCCCCCCCCCN(C)C(=O)Oc1cccc([N+](C)(C)C)c1)C(=O)Oc1cccc([N+](C)(C)C)c1 [SJ000287334-3, DEMECARIUM BROMIDE]									11.04	4.988	33.39	4.147	13.7	-4.258	32.99	2.323
CNCC(O)c1ccc(OC(=O)C(C)(C)C)c(OC(=O)C(C)(C)C)c1 (centres unmarked) [SJ000287343-2, DIPIVEFRIN HYDROCHLORIDE]	1.591	-0.6385	8.373	-4.432	33.32	9.226	7.06	3.768								
COCCCC/C(=N\OCCN)c1ccc(C(F)(F)F)cc1 [SJ000287487-5, FLUVOXAMINE MALEATE]	1.409	-2.805	0.9693	-1.719	5.945	7.313	7.709	4.445								
COC(=O)C1=C(C)NC(C)=C(C(=O)OC(C)C)C1c1cccc2nonc12 (centres unmarked) [SJ000287510-2, ISRADIPINE]	0.2973	-2.562	2.426	-2.127	6.188	8.592	3.366	-1.199								
Cc1cccc(C)c1NC(=O)C(C)N (centres unmarked) [SJ000287515-4, TOCAINIDE HYDROCHLORIDE]	1.522	-0.9728	-0.903	-3.02	2.63	-1.466	-0.5289	2.731								
CCOc1cc(CC(=O)N[C@@H](CC(C)C)c2ccccc2N2CCCCC2)ccc1C(=O)O [SJ000287528-2, REPAGLINIDE]									3.133	0.05176	0.6192	-2.471	-0.4831	3.798	-2.093	3.177
CCOc1cc(CC(=O)N[C@@H](CC(C)C)c2ccccc2N2CCCCC2)ccc1C(=O)O [SJ000287528-3, REPAGLINIDE]									1.002	-3.811	-2.004	-1.863	1.863	0.4521	0.8964	-0.6814
CCN[C@H]1C[C@H](C)S(=O)(=O)c2sc(S(N)(=O)=O)cc21 [SJ000287570-2, DORZOLAMIDE HYDROCHLORIDE]	-0.4811	-2.24	-1.46	0.1634	5.665	-4.447	2.321	-0.8167								
NS(=O)(=O)c1cc2c(cc1Cl)NC(C1CC3C=CC1C3)NS2(=O)=O (centres unmarked) [SJ000287770-4, CYCLOTHIAZIDE]	-1.741	2.052	2.178	4.526	4.774	-0.8826	3.095	0.8137								
CCOC(=O)c1ncn2c1CN(C)C(=O)c1cc(F)ccc1-2 [SJ000287880-4, FLUMAZENIL]	1.865	5.754	0.7722	-1.15	-0.5944	1.517	0.9807	-1.521								
O=C1Nc2ccc(I)cc2C1=Cc1cc(Br)c(O)c(Br)c1 [SJ000287883-4, GW 5074 | GW5074 | RAF1 KINASE INHIBITOR I | U7401/61/2 | GW5074]	1.287	1.257	1.335	3.747	3.135	7.111	2.224	-0.3991								
COc1cc2c(cc1O)CC[C@@H]1[C@@H]2CC[C@]2(C)[C@@H](O)CC[C@@H]12 [SJ000288002-4, 2-METHOXYESTRADIOL | 2-METHOXYESTRADIOL | PANZEM | PULMOLAR | 2-ME | 2-MEOE2 | 2ME2 | NSC-659853 | | 2-METHOXYESTRADIOL | 2-ME | 2-MEOE2 | 2ME2 | NSC-659853 | | 2-METHOXYESTRADIOL (2-MEOE2)]									111	122.6	99.75	133.7	91.74	60.77	95.83	66.58
COc1cc2c(cc1O)CC[C@@H]1[C@@H]2CC[C@]2(C)[C@@H](O)CC[C@@H]12 [SJ000288002-5, 2-METHOXYESTRADIOL | 2-METHOXYESTRADIOL | PANZEM | PULMOLAR | 2-ME | 2-MEOE2 | 2ME2 | NSC-659853 | | 2-METHOXYESTRADIOL | 2-ME | 2-MEOE2 | 2ME2 | NSC-659853 | | 2-METHOXYESTRADIOL (2-MEOE2)]									94.34	96.86	76.13	118	80.44	61.44	80.21	56.77
